Experimental data from patent US10626081B2, “Farnesoid X receptor agonists and uses thereof” (Metacrine, Inc., priority 2015, dated 2020).

biological target: T1, FXR (Homo sapiens, UniProt Q96RI1); test: In Vitro FXR Assay (TK): TK-ECRE-luc reporter in transfected CV-1 cells; type: cell-based; settings: CV-1 cells transfected with hFXR, hRXR, 18 h incubation, luminescence
T1 construct: expressed in transfected cells; host or cells: CV-1 cells
T1 sequence (Q96RI1 1-486): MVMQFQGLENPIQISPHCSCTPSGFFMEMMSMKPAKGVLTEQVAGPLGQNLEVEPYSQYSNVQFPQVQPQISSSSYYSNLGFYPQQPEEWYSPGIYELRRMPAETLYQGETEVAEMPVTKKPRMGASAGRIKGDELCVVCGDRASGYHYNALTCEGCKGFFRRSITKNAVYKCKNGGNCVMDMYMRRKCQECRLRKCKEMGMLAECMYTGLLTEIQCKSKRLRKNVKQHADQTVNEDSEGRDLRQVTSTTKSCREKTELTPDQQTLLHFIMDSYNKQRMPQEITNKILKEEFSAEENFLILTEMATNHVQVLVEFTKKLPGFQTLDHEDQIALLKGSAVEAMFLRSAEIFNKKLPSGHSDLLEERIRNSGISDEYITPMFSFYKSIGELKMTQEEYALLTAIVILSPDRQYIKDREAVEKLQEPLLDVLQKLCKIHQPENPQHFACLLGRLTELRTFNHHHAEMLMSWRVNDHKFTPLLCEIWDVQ
T1 sequence (P19793 1-462 partner): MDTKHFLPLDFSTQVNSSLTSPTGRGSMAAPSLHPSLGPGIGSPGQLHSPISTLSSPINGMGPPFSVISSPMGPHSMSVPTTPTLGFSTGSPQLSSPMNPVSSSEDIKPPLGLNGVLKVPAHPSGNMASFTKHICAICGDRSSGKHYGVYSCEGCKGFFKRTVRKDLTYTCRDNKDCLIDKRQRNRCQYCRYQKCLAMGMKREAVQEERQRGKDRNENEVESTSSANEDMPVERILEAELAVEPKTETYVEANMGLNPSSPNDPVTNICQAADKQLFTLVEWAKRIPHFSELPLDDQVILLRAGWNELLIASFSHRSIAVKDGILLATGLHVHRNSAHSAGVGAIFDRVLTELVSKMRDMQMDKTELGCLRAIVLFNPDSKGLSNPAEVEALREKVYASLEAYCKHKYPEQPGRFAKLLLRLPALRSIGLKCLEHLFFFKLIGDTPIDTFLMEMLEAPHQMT
Description: Example B-2: In Vitro FXR Assay (TK)
CV-1 cells were seeded at a density of 2,000,000 cells in a T175 flask with DMEM+10% charcoal double-stripped FBS and incubated at 37° C. in 5% CO2 for 18 h (O/N).
After 18 h of incubation, the medium in the T175 flask was changed with fresh DMEM+10% charcoal super-stripped serum. In a polypropylene tube, 2500 μL OptiMEM (Life Technologies, Cat #31985-062) was combined with expression plasmids for hFXR, hRXR, TK-ECRE-luc and pCMX-YFP. The tube was then briefly vortexed and incubated at room temperature for 5 minutes. Transfection reagent (X-tremeGENE HP from Roche, Cat #06 366 236 001) was added to the OptiMEM/plasmid mixture vortexed and incubated at room temperature for 20 minutes. Following incubation, the transfection reagent/DNA mixture complex was added to cells in the T175 flask and the cells were incubated at 37° C. in 5% CO2 for 18 h (O/N).
Compounds were serially diluted in DMSO and added to transfected CV-1 cells. The cells were then incubated for 18 hrs. The next day cells were lysed and examined for luminescence.

Compound | EC50 [nM]
COC(=O)/C=C/c1cccc(N(Cc2ccc(-c3ccc(N(C)C)cc3)cc2)C(=O)c2ccc(F)c(F)c2)c1 [13.1, (E)-Methyl 3-(3-(N-((4′-(dimethylamino)-[1,1′-biphenyl]-4-yl)methyl)-3,4-difluorobenzamido)phenyl)acrylate] | 1000 to 10000
COC(=O)/C=C/c1cccc(N(Cc2ccc(-c3ccc(N(C)C)cc3)cc2)C(=O)c2ccc(F)cc2)c1 [13.2, (E)-Methyl 3-(3-(N-((4′-(dimethylamino)-[1,1′-biphenyl]-4-yl)methyl)-4-fluorobenzamido)phenyl)acrylate] | 1000 to 10000
COC(=O)/C=C/c1cccc(N(Cc2ccc(-c3ccc(N(C)C)cc3)cc2)C(=O)C2(C)CCCCC2)c1 [13.3, (E)-Methyl 3-(3-(N-((4′-(dimethylamino)-[1,1′-biphenyl]-4-yl)methyl)-1-methylcyclohexane-carboxamido)phenyl)acrylate] | 1000 to 10000
COC(=O)/C=C/c1cc(F)cc(N(Cc2ccc(-c3ccc(N(C)C)cc3)cc2)C(=O)C2CCCCC2)c1 [13.4, (E)-Methyl 3-(3-(N-((4′-(dimethylamino)-[1,1′-biphenyl]-4-yl)methyl)cyclohexanecarboxamido)-5-fluorophenyl)acrylate] | ≤ 1000
COC(=O)/C=C/c1cc(F)cc(N(Cc2ccc(-c3ccc(N(C)C)cc3)cc2)C(=O)C2CC3CCC2C3)c1 (stereo not shown) [13.5, (E)-Methyl 3-(3-(N-((4′-(dimethylamino)-[1,1′-biphenyl]-4-yl)methyl)bicyclo[2.2.1]heptane-2-carboxamido)-5-fluorophenyl)acrylate] | ≤ 1000
COC(=O)/C=C/c1cccc(N(Cc2ccc(-c3ccc(N(C)C)cc3)cc2)C(=O)C2(C)CCOCC2)c1 [13.6, (E)-Methyl 3-(3-(N-((4′-(dimethylamino)-[1,1′-biphenyl]-4-yl)methyl)-4-methyltetrahydro-2H-pyran-4-carboxamido)phenyl)acrylate] | 1000 to 10000
COC(=O)/C=C/c1cccc(N(Cc2ccc(-c3ccc(N(C)C)cc3)cc2)C(=O)c2ccccc2OC)c1 [13.7, (E)-Methyl 3-(3-(N-((4′-(dimethylamino)-[1,1′-biphenyl]-4-yl)methyl)-2-methoxybenzamido)phenyl)acrylate] | ≤ 1000
COC(=O)/C=C/c1cccc(N(Cc2ccc(-c3ccc(N(C)C)cc3)cc2)C(=O)C2CCS(=O)(=O)CC2)c1 [13.8, (E)-Methyl 3-(3-(N-((4′-(dimethylamino)-[1,1′-biphenyl]-4-yl)methyl)-1,1-dioxidotetrahydro-2H-thiopyran-4-carboxamido)phenyl)acrylate] | > 10000
COC(=O)/C=C/c1cccc(N(Cc2ccc(-c3ccc(N(C)C)cc3)cc2)C(=O)C2CCSCC2)c1 [13.9, (E)-Methyl 3-(3-(N-((4′-(dimethylamino)-[1,1′-biphenyl]-4-yl)methyl)tetrahydro-2H-thiopyran-4-carboxamido)phenyl)acrylate] | ≤ 1000
COC(=O)/C=C/c1cccc(N(Cc2ccc(-c3ccc(N(C)C)cc3)cc2)C(=O)c2cccc(OC)c2)c1 [13.10, (E)-Methyl 3-(3-(N-((4′-(dimethylamino)-[1,1′-biphenyl]-4-yl)methyl)-3-methoxybenzamido)phenyl)acrylate] | 1000 to 10000
COC(=O)/C=C/c1cccc(N(Cc2ccc(-c3ccc(N(C)C)cc3)cc2)C(=O)C2CN(S(C)(=O)=O)C2)c1 [13.11, (E)-Methyl 3-(3-(N-((4′-(dimethylamino)-[1,1′-biphenyl]-4-yl)methyl)-1-(methylsulfonyl)azetidine-3-carboxamido)phenyl)acrylate] | 1000 to 10000

The next lines start with the values.

EC50 [nM] | Compound
1000 to 10000 | COC(=O)/C=C/c1cccc(N(Cc2ccc(-c3ccc(N(C)C)cc3)cc2)C(=O)[C@@H]2CCCC[C@H]2O)c1 (relative stereo) [13.25, trans-(E)-Methyl 3-(3-(N-((4′-(dimethylamino)-[1,1′-biphenyl]-4-yl)methyl)-2-hydroxycyclohexanecarboxamido)phenyl)acrylate]
1000 to 10000 | COC(=O)/C=C/c1cccc(N(Cc2ccc(-c3ccc(N(C)C)cc3)cc2)C(=O)[C@@H]2CCCC[C@@H]2O)c1 (relative stereo) [13.26, cis-(E)-Methyl 3-(3-(N-((4′-(dimethylamino)-[1,1′-biphenyl]-4-yl)methyl)-2-hydroxycyclohexanecarboxamido)phenyl)acrylate]
≤ 1000 | COC(=O)/C=C/c1cccc(N(Cc2ccc(-c3ccc(N(C)C)cc3)cc2)C(=O)[C@@H]2CCC[C@H](O)C2)c1 (relative stereo) [13.27, cis-(E)-Methyl 3-(3-(N-((4′-(dimethylamino)-[1,1′-biphenyl]-4-yl)methyl)-3-hydroxycyclohexanecarboxamido)phenyl)acrylate]
> 10000 | COC(=O)/C=C/c1cccc(N(Cc2ccc(-c3ccc(N(C)C)cc3)cc2)C(=O)[C@@H]2CCC[C@@H](O)C2)c1 (relative stereo) [13.28, trans-(E)-Methyl 3-(3-(N-((4′-(dimethylamino)-[1,1′-biphenyl]-4-yl)methyl)-3-hydroxycyclohexanecarboxamido)phenyl)acrylate]
1000 to 10000 | COC(=O)/C=C/c1cccc(N(Cc2ccc(-c3ccc(N(C)C)cc3)cc2)C(=O)c2ccc(OCCN3CCOCC3)cc2)c1 [13.12, (E)-Methyl 3-(3-(N-((4′-(dimethylamino)-[1,1′-biphenyl]-4-yl)methyl)-4-(2-morpholinoethoxy)benzamido)phenyl)acrylate]
1000 to 10000 | COC(=O)/C=C/c1cccc(N(Cc2ccc(-c3ccc(N(C)C)cc3)cc2)C(=O)C2CCC(SC)CC2)c1 (stereo not shown) [13.13, (E)-Methyl 3-(3-(N-((4′-(dimethylamino)-[1,1′-biphenyl]-4-yl)methyl)-4-(methylthio)cyclohexanecarboxamido)phenyl)acrylate]
1000 to 10000 | COC(=O)/C=C/c1cccc(N(Cc2ccc(-c3ccc(N(C)C)cc3)cc2)C(=O)[C@H]2CC[C@@H](S(C)(=O)=O)CC2)c1 [13.14, cis-(E)-Methyl 3-(3-(N-((4′-(dimethylamino)-[1,1′-biphenyl]-4-yl)methyl)-4-(methylsulfonyl)cyclohexanecarboxamido)phenyl)acrylate]
1000 to 10000 | COC(=O)/C=C/c1cccc(N(Cc2ccc(-c3ccc(N(C)C)cc3)cc2)C(=O)[C@H]2CC[C@H](S(C)(=O)=O)CC2)c1 [13.15, trans-(E)-methyl 3-(3-(N-((4′-(dimethylamino)-[1,1′-biphenyl]-4-yl)methyl)-4-(methylsulfonyl)cyclohexanecarboxamido)phenyl)acrylate]
≤ 1000 | COC(=O)/C=C/c1cccc(N(Cc2ccc(-c3ccc(N(C)C)cc3)cc2)C(=O)[C@H]2CC[C@H](C(=O)O)CC2)c1 [13.16, trans-4-(((4′-(Dimethylamino)-[1,1′-biphenyl]-4-yl)methyl)(3-((E)-3-methoxy-3-oxoprop-1-en-1-yl)phenyl)carbamoyl) cyclohexanecarboxylic acid]
1000 to 10000 | COC(=O)/C=C/c1cccc(N(Cc2ccc(-c3ccc(N(C)C)cc3)cc2)C(=O)C2CCC(=O)NC2)c1 (stereo not shown) [13.17, (E)-Methyl 3-(3-(N-((4′-(dimethylamino)-[1,1′-biphenyl]-4-yl)methyl)-6-oxopiperidine-3-carboxamido)phenyl)acrylate]
1000 to 10000 | COC(=O)/C=C/c1cccc(N(Cc2ccc(-c3ccc(N(C)C)cc3)cc2)C(=O)C2CCNC(=O)C2)c1 (stereo not shown) [13.18, (E)-Methyl 3-(3-(N-((4′-(dimethylamino)-[1,1′-biphenyl]-4-yl)methyl)-2-oxopiperidine-4-carboxamido)phenyl)acrylate]
